ChEMBL document CHEMBL1134744, “Discovery and parallel synthesis of a new class of cathepsin K inhibitors” (Bioorg Med Chem Lett, 2001)

Biological target: T1, Cathepsin K (Homo sapiens, UniProt P43235)
T1 sequence (P43235 whole entry): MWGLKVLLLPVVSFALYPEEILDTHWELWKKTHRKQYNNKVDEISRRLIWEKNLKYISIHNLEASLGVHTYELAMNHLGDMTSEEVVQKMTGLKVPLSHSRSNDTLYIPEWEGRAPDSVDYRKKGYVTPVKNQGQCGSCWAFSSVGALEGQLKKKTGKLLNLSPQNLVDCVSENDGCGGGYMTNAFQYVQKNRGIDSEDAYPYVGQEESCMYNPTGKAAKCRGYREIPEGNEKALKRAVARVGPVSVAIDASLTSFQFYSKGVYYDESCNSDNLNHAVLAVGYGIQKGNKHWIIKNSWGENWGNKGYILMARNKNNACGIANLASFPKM
Assay: (§1) Inhibitory activity against cathepsin K
Details: not given

Row | IC50 [nM] | Ki [nM] | SMILES
1 | 410 |  | CC[C@H](C)[C@@H](/C=C/c1ccccc1)NC(=O)[C@@H]1CCCCN1CC(=O)c1ccc(OC)cc1
2 | 590 |  | CC[C@H](C)[C@@H](/C=C/c1ccccc1)NC(=O)[C@@H]1CCCCN1CC(=O)c1ccc2c(c1)OCO2
3 | 840 |  | CC(C)C[C@@H](/C=C/c1ccccc1)NC(=O)[C@@H]1CCCCN1CC(=O)c1ccccc1
4 | 230 |  | CC[C@H](C)[C@@H](/C=C/c1ccccc1)NC(=O)[C@@H]1CCCCN1CC(=O)c1ccccc1
5 | 280 |  | CC[C@H](C)[C@@H](/C=C/c1ccccc1)NC(=O)[C@@H]1CCCCN1CC(=O)c1ccc(Cl)cc1
6 | 1500 |  | COc1cc(C(=O)CN2CCCC[C@H]2C(=O)N[C@H](/C=C/c2ccccc2)CC(C)C)cc(OC)c1OC
7 | 700 |  | CC[C@H](C)[C@@H](/C=C/c1ccccc1)NC(=O)[C@@H]1CCCCN1CC(=O)c1c(OC)cccc1OC
8 | 1200 | 790 | CC[C@H](C)[C@@H](/C=C/c1ccccc1)NC(=O)[C@@H]1CCCCN1CC(=O)c1cc(OC)c(OC)c(OC)c1
9 | 740 |  | CC[C@H](C)[C@@H](/C=C/c1ccc(C)cc1)NC(=O)[C@@H]1CCCCN1CC(=O)c1ccccc1
10 | 1400 |  | CC[C@H](C)[C@@H](/C=C/c1ccc(Cl)cc1)NC(=O)[C@@H]1CCCCN1CC(=O)c1ccccc1
11 | 590 |  | CC[C@H](C)[C@@H](/C=C/c1ccccc1C)NC(=O)[C@@H]1CCCCN1CC(=O)c1ccccc1

Biological target: T1, Cathepsin K
Assay: Inhibitory activity against Cathepsin K
Details: not given

Row | IC50 [nM] | Ki [nM] | SMILES
12 | 780 |  | CC(C)[C@@H](/C=C/c1ccccc1)NC(=O)[C@@H]1CCCCN1CC(=O)c1ccccc1
13 |  | 2 | CC(C)C[C@H](NC(=O)OCc1ccccc1)C(=O)NC1CN(C(=O)[C@H](CC(C)C)NC(=O)OCc2ccccc2)CC1=O (stereo not given in full)

Biological target: T2, Cathepsin K (Homo sapiens) (UniProt P43235)
T2 sequence (whole entry): T1 sequence (P43235 whole entry)
Assay: as §1
Design: concentration or dose not given beside the values
Details: concentration not given here

Row | inhibition [%] | SMILES
14 | 11 | CC[C@H](C)[C@@H](/C=C/c1ccccc1)NC(=O)[C@@H]1CCCCN1CC(=O)c1cccc([N+](=O)[O-])c1
15 | 42 | CC[C@H](C)[C@@H](/C=C/c1ccccc1)NC(=O)[C@@H]1CCCCN1CC(=O)c1ccc(NC(C)=O)cc1
16 | 2 | O=C(CN1CCCC[C@H]1C(=O)Nc1cccc(-c2ccccc2)c1)c1ccccc1
17 | 43 | CC[C@H](C)[C@@H](/C=C/c1ccccc1)NC(=O)[C@@H]1C=CCN1CC(=O)c1ccccc1
18 | < 1 | O=C(CN1CCCC[C@H]1C(=O)Nc1ccc2oc3ccccc3c2c1)c1ccccc1
19 | 28 | CC[C@H](C)[C@@H](/C=C/c1ccccc1)NC(=O)[C@@H]1CCCCN1CC(=O)c1ccc([N+](=O)[O-])cc1
20 | 20 | COc1cc(C(=O)CN2CCCC[C@H]2C(=O)N[C@H](/C=C/c2ccccc2)Cc2ccccc2)cc(OC)c1OC
21 | 8 | CC[C@H](C)[C@@H](/C=C/c1ccncc1)NC(=O)[C@@H]1CCCCN1CC(=O)c1ccccc1
22 | 26 | CC[C@H](C)[C@@H](/C=C/c1ccccn1)NC(=O)[C@@H]1CCCCN1CC(=O)c1ccccc1
23 | 16 | CC[C@H](C)[C@@H](/C=C/c1ccccc1)NC(=O)[C@@H]1CCCCN1CC(=O)c1ccc(C#N)cc1
24 | 8 | CC[C@H](C)[C@H](NC(=O)[C@@H]1CCCCN1CC(=O)c1ccccc1)C(=O)Nc1ccccc1
25 | 8 | CC[C@H](C)[C@@H](/C=C/c1ccccc1)NC(=O)[C@@H]1CCCCN1CC(O)c1cc(OC)c(OC)c(OC)c1 (stereo not given in full)
26 | 22 | CCC(=O)CN1CCCC[C@H]1C(=O)N[C@H](/C=C/c1ccccc1)[C@@H](C)CC
27 | 15 | CC[C@H](C)[C@@H](/C=C/c1ccccc1)NC(=O)[C@@H]1CCCN1CC(=O)c1ccccc1
28 | 29 | CC[C@H](C)[C@@H](/C=C/c1ccccc1)NC(=O)[C@@H]1Cc2ccccc2CN1CC(=O)c1ccccc1
29 | 3 | CC[C@H](C)[C@@H](/C=C/c1ccccc1)NC(=O)[C@@H]1CCCCN1CC(C)=O
